# According to patent US10538555B2, “Macrocyclic inhibitors of the PD-1/PD-L1 and CD80(B7-1)/PD-L1 protein/protein interactions” (BRISTOL-MYERS SQUIBB COMPANY, priority 2014, dated 2020):
# *1 amine or outer side, *2 acyl side, *3 side chain or, on linkers, in order; H or OH if unused. Where a SMILES comes first, the peptide text is derived from it. Bridges are numbered along the chain shown (N, C = ends). [ ]: non-standard residue; d: D form. ξ: configuration not given here. Trp(1-CH2COOH) = N[C@@H](Cc1cn(CC(=O)O)c2ccccc12)C(=O)O; Phe(3,4,5-F3) = N[C@@H](Cc1cc(F)c(F)c(F)c1)C(=O)O; Phe(3,4-(OMe)2) = COc1ccc(C[C@H](N)C(=O)O)cc1OC; NMePhe(4-Me) = CN[C@@H](Cc1ccc(C)cc1)C(=O)O; NMePhe(4-F) = CN[C@@H](Cc1ccc(F)cc1)C(=O)O; Phe(4-F) = N[C@@H](Cc1ccc(F)cc1)C(=O)O; Pro(4R-NH2) = N[C@H]1CN[C@H](C(=O)O)C1; d(cisHyp) = O=C(O)[C@H]1C[C@@H](O)CN1; Hyp = O=C(O)[C@@H]1C[C@@H](O)CN1; NMeF = CN[C@@H](Cc1ccccc1)C(=O)O; X1 = O=C([C@H]1COCCN1[*:1])[*:2]; dHyp = O=C(O)[C@H]1C[C@H](O)CN1; NMehSer = CN[C@@H](CCO)C(=O)O; NMeNle = CCCC[C@H](NC)C(=O)O; Pip = O=C(O)[C@@H]1CCCCN1; dPip = O=C(O)[C@H]1CCCCN1; hSer = N[C@@H](CCO)C(=O)O; NMeA = CN[C@@H](C)C(=O)O; Orn = NCCC[C@H](N)C(=O)O; Dab = NCC[C@H](N)C(=O)O; Dap = NC[C@H](N)C(=O)O; ξC = NC(CS)C(=O)O
# Biological target: T1, Human PD-L1/PD-1 (Homo sapiens, UniProt Q9NZQ7)
# T1 construct: TVMV protease cleavage site (C); made in house; host or cells: HEK293T cells
# Assay: HTRF Human PD-L1/PD-1 binding assay (PD-1-Ig/PD-L1-His)
# Conditions: PD-L1-His 10 nM, PD-1-Ig 20 nM; class symbol; read-out: HTRF Human PD-L1/PD-1 Binding Assay IC50 Range
# Method in brief: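 Soluble HEK293T-expressed proteins: hPD-L1-His 10 nM, hPD-1-Ig 20 nM final. Cpd + PD-L1 15 min, + PD-1 15 min, + Eu anti-Ig 1 nM/APC anti-His 20 nM 30 min. Buffer dPBS, 0.1% BSA, 0.05% Tween-20. TR-FRET 665/620.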
# T1 sequence (Q9NZQ7 with tags, fused parts or gaps): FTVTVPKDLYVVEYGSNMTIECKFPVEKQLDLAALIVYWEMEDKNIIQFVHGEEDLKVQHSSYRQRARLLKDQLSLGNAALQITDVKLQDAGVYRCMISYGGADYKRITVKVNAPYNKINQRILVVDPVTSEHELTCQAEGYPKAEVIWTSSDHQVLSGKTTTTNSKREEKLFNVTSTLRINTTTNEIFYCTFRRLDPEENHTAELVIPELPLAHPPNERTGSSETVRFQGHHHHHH
row,IC50,Compound
1,100 to 990 nM,CCCC[C@H]1C(=O)N2CCC[C@@H]2C(=O)N[C@@H](CC(=O)O)C(=O)N[C@@H](C(C)C)C(=O)N(C)[C@@H](Cc2ccc(C)cc2)C(=O)N[C@@H](CCCN)C(=O)N2CCC[C@@H]2C(=O)N[C@@H](Cc2c[nH]c3ccccc23)C(=O)N[C@@H](Cc2ccc(O)cc2)C(=O)N[C@@H](CC(C)C)C(=O)N[C@H](C(=O)NCC(N)=O)CSCC(=O)N[C@@H](Cc2ccc(F)cc2)C(=O)N(C)[C@@H](Cc2ccccc2)C(=O)N1C [Example 10112] ({CH2CO}-[Phe(4-F)][NMeF][NMeNle][dP]DV[NMePhe(4-Me)][Orn][dP]WYLCG-NH2; thioether N-13)
2,1000 to 10000 nM,CCCC[C@H]1C(=O)N[C@@H](CC(N)=O)C(=O)N2CCC[C@H]2C(=O)N[C@@H](CO)C(=O)N[C@@H](CCO)C(=O)N2C[C@H](O)C[C@H]2C(=O)N[C@@H](Cc2c[nH]c3ccccc23)C(=O)N[C@@H](CCO)C(=O)N[C@@H](Cc2c[nH]c3ccccc23)C(=O)N(C)[C@@H](C)C(=O)N(C)[C@@H](C)C(=O)N[C@@H](CCCCN)C(=O)NC(C(=O)NCC(N)=O)CSCC(=O)N[C@@H](Cc2ccc(O)cc2)C(=O)N1C (stereo partly drawn) [Example 10217] ({CH2CO}-Y[NMeNle]NPS[hSer][Hyp]W[hSer]W[NMeA][NMeA]K[ξC]G-NH2; thioether N-14)
3,10 to 99.9 nM,CCCC[C@H]1C(=O)N(C)[C@@H](CCCC)C(=O)N[C@@H](CCN)C(=O)N[C@H](C(=O)NCC(N)=O)CSCC(=O)N[C@@H](Cc2ccc(O)cc2)C(=O)N2CCCC[C@H]2C(=O)N[C@@H](CC(=O)O)C(=O)N2CCC[C@H]2C(=O)N[C@@H](Cc2cnc[nH]2)C(=O)N[C@@H](CCC(=O)O)C(=O)N2C[C@H](O)C[C@H]2C(=O)N[C@@H](Cc2c[nH]c3ccccc23)C(=O)N[C@@H](CO)C(=O)N[C@@H](Cc2cn(CC(=O)O)c3ccccc23)C(=O)N1C [Example 1294] ({CH2CO}-Y[Pip]DPHE[Hyp]WS[Trp(1-CH2COOH)][NMeNle][NMeNle][Dab]CG-NH2; thioether N-14)
4,1 to 9.9 nM,"CCCC[C@H]1C(=O)N2C[C@H](O)C[C@@H]2C(=O)N[C@@H](CC(=O)O)C(=O)N[C@@H](C(C)C)C(=O)N(C)[C@@H](Cc2ccccc2)C(=O)N[C@@H](Cc2ccc(O)cc2)C(=O)N2CCC[C@@H]2C(=O)N[C@@H](Cc2c[nH]c3ccccc23)C(=O)N[C@@H](Cc2ccc(O)cc2)C(=O)N[C@@H](CCO)C(=O)N[C@H](C(=O)NCC(N)=O)CSCC(=O)N[C@@H](Cc2cc(F)c(F)c(F)c2)C(=O)N(C)[C@@H](Cc2ccccc2)C(=O)N1C [Example 10153] ({CH2CO}-[Phe(3,4,5-F3)][NMeF][NMeNle][d(cisHyp)]DV[NMeF]Y[dP]WY[hSer]CG-NH2; thioether N-13)"
5,1 to 9.9 nM,CCCC[C@H]1C(=O)N2CCC[C@@H]2C(=O)N[C@@H](CC(=O)O)C(=O)N[C@@H](C(C)C)C(=O)N(C)[C@@H](Cc2ccc(F)cc2)C(=O)N[C@@H](CCC(=O)O)C(=O)N2CCC[C@@H]2C(=O)N[C@@H](Cc2c[nH]c3ccccc23)C(=O)N[C@@H](Cc2ccc(O)cc2)C(=O)N[C@@H](CC(C)C)C(=O)N[C@H](C(=O)NCC(N)=O)CSCC(=O)N[C@@H](Cc2ccc(F)cc2)C(=O)N(C)[C@@H](Cc2ccccc2)C(=O)N1C [Example 10111] ({CH2CO}-[Phe(4-F)][NMeF][NMeNle][dP]DV[NMePhe(4-F)]E[dP]WYLCG-NH2; thioether N-13)
6,10 to 99.9 nM,"CCCC[C@H]1C(=O)N2C[C@H](O)C[C@@H]2C(=O)N2C[C@H](N)C[C@H]2C(=O)N[C@@H](C(C)C)C(=O)N(C)[C@@H](Cc2ccccc2)C(=O)N[C@@H](CCC(=O)O)C(=O)N2CCOC[C@@H]2C(=O)N[C@@H](Cc2c[nH]c3ccccc23)C(=O)N[C@@H](Cc2ccc(O)cc2)C(=O)N[C@@H](CC(C)C)C(=O)N[C@H](C(=O)NCC(N)=O)CSCC(=O)N[C@@H](Cc2cc(F)c(F)c(F)c2)C(=O)N(C)[C@@H](Cc2ccccc2)C(=O)N1C [Example 3216] ({CH2CO}-[Phe(3,4,5-F3)][NMeF][NMeNle][d(cisHyp)][Pro(4R-NH2)]V[NMeF]E[X1]WYLCG-NH2; thioether N-13)"
7,1 to 9.9 nM,"CCCC[C@H]1C(=O)N2CCC[C@@H]2C(=O)N[C@@H](CC(=O)O)C(=O)N[C@@H](C(C)C)C(=O)N(C)[C@@H](Cc2ccccc2)C(=O)N[C@@H](Cc2ccc(O)cc2)C(=O)N2CCC[C@@H]2C(=O)N[C@@H](Cc2c[nH]c3ccccc23)C(=O)N[C@@H](Cc2ccc(O)cc2)C(=O)N[C@@H](CC(=O)O)C(=O)N[C@H](C(=O)NCC(N)=O)CSCC(=O)N[C@@H](Cc2cc(F)c(F)c(F)c2)C(=O)N(C)[C@@H](Cc2ccccc2)C(=O)N1C [Example 10099] ({CH2CO}-[Phe(3,4,5-F3)][NMeF][NMeNle][dP]DV[NMeF]Y[dP]WYDCG-NH2; thioether N-13)"
8,1 to 9.9 nM,"CCCC[C@H]1C(=O)N2C[C@H](O)C[C@@H]2C(=O)N[C@@H](CC(=O)O)C(=O)N[C@@H](C(C)C)C(=O)N(C)[C@@H](Cc2ccccc2)C(=O)N[C@@H](Cc2ccc(O)cc2)C(=O)N2C[C@H](O)C[C@@H]2C(=O)N[C@@H](Cc2c[nH]c3ccccc23)C(=O)N[C@@H](Cc2ccc(O)cc2)C(=O)N[C@@H](CCCCN)C(=O)N[C@H](C(=O)NCC(N)=O)CSCC(=O)N[C@@H](Cc2cc(F)c(F)c(F)c2)C(=O)N(C)[C@@H](Cc2ccccc2)C(=O)N1C [Example 9322] ({CH2CO}-[Phe(3,4,5-F3)][NMeF][NMeNle][d(cisHyp)]DV[NMeF]Y[d(cisHyp)]WYKCG-NH2; thioether N-13)"
9,1 to 9.9 nM,"CCCC[C@H]1C(=O)N2CCC[C@@H]2C(=O)N[C@@H](CC(=O)O)C(=O)N[C@@H](C(C)C)C(=O)N(C)[C@@H](Cc2ccccc2)C(=O)N[C@@H](CC(=O)O)C(=O)N2CCCC[C@@H]2C(=O)N[C@@H](Cc2c[nH]c3ccccc23)C(=O)N[C@@H](Cc2ccc(O)cc2)C(=O)N[C@@H](CC(N)=O)C(=O)N[C@H](C(=O)NCC(N)=O)CSCC(=O)N[C@@H](Cc2cc(F)c(F)c(F)c2)C(=O)N(C)[C@@H](Cc2ccc(F)cc2)C(=O)N1C [Example 10574] ({CH2CO}-[Phe(3,4,5-F3)][NMePhe(4-F)][NMeNle][dP]DV[NMeF]D[dPip]WYNCG-NH2; thioether N-13)"
10,1 to 9.9 nM,"CCCC[C@H]1C(=O)N2C[C@H](O)C[C@@H]2C(=O)N[C@@H](CC(=O)O)C(=O)N[C@@H](C(C)C)C(=O)N(C)[C@@H](Cc2ccccc2)C(=O)N[C@@H](Cc2ccc(O)cc2)C(=O)N2CCOC[C@@H]2C(=O)N[C@@H](Cc2c[nH]c3ccccc23)C(=O)N[C@@H](Cc2ccc(O)cc2)C(=O)N[C@@H](CCOC)C(=O)N[C@H](C(=O)NCC(N)=O)CSCC(=O)N[C@@H](Cc2cc(F)c(F)c(F)c2)C(=O)N(C)[C@@H](Cc2ccccc2)C(=O)N1C [Example 10160] ({CH2CO}-[Phe(3,4,5-F3)][NMeF][NMeNle][d(cisHyp)]DV[NMeF]Y[X1]WY[hSer](Me)CG-NH2; thioether N-13)"
11,1 to 9.9 nM,"CCCC[C@H]1C(=O)N(C)[C@@H](CCCC)C(=O)N[C@@H](CCCNC(=N)N)C(=O)N[C@H](C(=O)NCC(N)=O)CSCC(=O)N[C@@H](Cc2ccc(OC)c(OC)c2)C(=O)N(C)[C@@H](C)C(=O)N[C@@H](CC(N)=O)C(=O)N2CCC[C@H]2C(=O)N[C@@H](Cc2cnc[nH]2)C(=O)N[C@@H](CC(C)C)C(=O)N2C[C@H](O)C[C@H]2C(=O)N[C@@H](Cc2c[nH]c3ccccc23)C(=O)N[C@@H](CO)C(=O)N[C@@H](Cc2c[nH]c3ccccc23)C(=O)N1C [Example 7072] ({CH2CO}-[Phe(3,4-(OMe)2)][NMeA]NPHL[Hyp]WSW[NMeNle][NMeNle]RCG-NH2; thioether N-14)"
12,1 to 9.9 nM,CCCC[C@H]1C(=O)N(C)[C@@H](CCCC)C(=O)N[C@@H](CCC(=O)O)C(=O)N[C@H](C(=O)NCC(N)=O)CSCC(=O)N[C@@H](Cc2ccc(O)cc2)C(=O)N2CCCC[C@H]2C(=O)N[C@@H](CC(=O)O)C(=O)N2CCC[C@H]2C(=O)N[C@@H](Cc2cnc[nH]2)C(=O)N[C@@H](CCC(=O)O)C(=O)N2C[C@H](O)C[C@H]2C(=O)N[C@@H](Cc2c[nH]c3ccccc23)C(=O)N[C@@H](CO)C(=O)N[C@@H](Cc2c[nH]c3ccccc23)C(=O)N1C [Example 1256] ({CH2CO}-Y[Pip]DPHE[Hyp]WSW[NMeNle][NMeNle]ECG-NH2; thioether N-14)
13,1 to 9.9 nM,"CCCC[C@H]1C(=O)N2C[C@@H](O)C[C@@H]2C(=O)N[C@@H](CC(=O)O)C(=O)N[C@@H](C(C)C)C(=O)N(C)[C@@H](Cc2ccccc2)C(=O)N[C@@H](CCC(=O)O)C(=O)N2CCOC[C@@H]2C(=O)N[C@@H](Cc2c[nH]c3ccccc23)C(=O)N[C@@H](Cc2ccc(O)cc2)C(=O)N[C@@H](CCCN)C(=O)N[C@H](C(=O)NCC(N)=O)CSCC(=O)N[C@@H](Cc2cc(F)c(F)c(F)c2)C(=O)N(C)[C@@H](Cc2ccccc2)C(=O)N1C [Example 9321] ({CH2CO}-[Phe(3,4,5-F3)][NMeF][NMeNle][dHyp]DV[NMeF]E[X1]WY[Orn]CG-NH2; thioether N-13)"
14,1 to 9.9 nM,CCCC[C@H]1C(=O)N(C)[C@@H](CCCC)C(=O)N[C@@H](CC(C)C)C(=O)N[C@H](C(=O)NCC(N)=O)CSCC(=O)N[C@@H](Cc2ccc(O)cc2)C(=O)N(C)[C@@H](C)C(=O)N[C@@H](CC(=O)O)C(=O)N2CCC[C@H]2C(=O)N[C@@H](CN)C(=O)N[C@@H](CCC(=O)O)C(=O)N2C[C@H](O)C[C@H]2C(=O)N[C@@H](Cc2c[nH]c3ccccc23)C(=O)N[C@@H](CCN)C(=O)N[C@@H](Cc2cn(CC(=O)O)c3ccccc23)C(=O)N1C [Example 5180] ({CH2CO}-Y[NMeA]DP[Dap]E[Hyp]W[Dab][Trp(1-CH2COOH)][NMeNle][NMeNle]LCG-NH2; thioether N-14)
15,10 to 99.9 nM,CCCC[C@H]1C(=O)N[C@@H](CC(C)C)C(=O)N[C@H](C(=O)NCC(N)=O)CSCC(=O)N[C@@H](Cc2ccc(O)cc2)C(=O)N(C)[C@@H](C)C(=O)N[C@@H](CCN)C(=O)N2CCC[C@H]2C(=O)N[C@@H](Cc2c[nH]cn2)C(=O)N[C@@H](CCC(=O)O)C(=O)N2C[C@H](O)C[C@H]2C(=O)N[C@@H](Cc2c[nH]c3ccccc23)C(=O)N[C@@H](CO)C(=O)N[C@@H](Cc2c[nH]c3ccccc23)C(=O)N(C)[C@@H](CCOC)C(=O)N1C [Example 10140] ({CH2CO}-Y[NMeA][Dab]PHE[Hyp]WSW[NMehSer](Me)[NMeNle]LCG-NH2; thioether N-14)
